Measurements: ChEMBL document CHEMBL1146381, “Synthesis, stereochemistry and antimicrobial evaluation of t(3)-benzyl-r(2),c(6)-diarylpiperidin-4-one and its derivatives” (2007)
Values after ≈ are worked out from the molar mass of the structure shown.

Legend:
Format in all cases: functional
Pseudomonas aeruginosa = assay: Antibacterial activity against Pseudomonas aeruginosa
Cryptococcus neoformans = assay: Antifungal activity against Cryptococcus neoformans
Escherichia coli = assay: Antibacterial activity against Escherichia coli
Aspergillus flavus = assay: Antifungal activity against Aspergillus flavus
Bacillus subtilis = assay: Antibacterial activity against Bacillus subtilis
Klebsiella pneumoniae = assay: Antibacterial activity against Klebsiella pneumoniae
Enterococcus faecalis = assay: Antibacterial activity against Streptococcus faecalis
Aspergillus niger = assay: Antifungal activity against Aspergillus niger
Candida [1] = assay: Antifungal activity against Candida 6
Candida [2] = assay: Antifungal activity against Candida 51

SMILES	MIC (Pseudomonas aeruginosa) [µg/mL]	MIC (Cryptococcus neoformans) [µg/mL]	MIC (Escherichia coli) [µg/mL]	MIC (Aspergillus flavus) [µg/mL]	MIC (Bacillus subtilis) [µg/mL]	MIC (Klebsiella pneumoniae) [µg/mL]	MIC (Enterococcus faecalis) [µg/mL]	MIC (Aspergillus niger) [µg/mL]	MIC (Candida [1]) [µg/mL]	MIC (Candida [2]) [µg/mL]
O/N=C1\CC(c2ccccc2)NC(c2ccccc2)C1Cc1ccccc1 (stereo not drawn)	25 (≈ 70.1 µM)	25 (≈ 70.1 µM)	12.5 (≈ 35.1 µM)	50 (≈ 140 µM)	25 (≈ 70.1 µM)	12.5 (≈ 35.1 µM)	25 (≈ 70.1 µM)	100 (≈ 281 µM)	50 (≈ 140 µM)	12.5 (≈ 35.1 µM)
O=CN1C(c2ccccc2)C/C(=N\O)C(Cc2ccccc2)C1c1ccccc1 (stereo not drawn)	50 (≈ 130 µM)	6.25 (≈ 16.3 µM)	25 (≈ 65 µM)	12.5 (≈ 32.5 µM)	25 (≈ 65 µM)	6.25 (≈ 16.3 µM)	25 (≈ 65 µM)	25 (≈ 65 µM)	12.5 (≈ 32.5 µM)	12.5 (≈ 32.5 µM)
O=C1CC(c2ccccc2)NC(c2ccccc2)C1Cc1ccccc1 (stereo not drawn)			12.5 (≈ 36.6 µM)	50 (≈ 146 µM)	12.5 (≈ 36.6 µM)	100 (≈ 293 µM)	50 (≈ 146 µM)	100 (≈ 293 µM)	50 (≈ 146 µM)	50 (≈ 146 µM)
CN[C@@H]1[C@H](O[C@H]2[C@H](O[C@H]3[C@H](O)[C@@H](O)[C@H](N=C(N)N)[C@@H](O)[C@@H]3N=C(N)N)O[C@@H](C)[C@]2(O)C=O)O[C@@H](CO)[C@H](O)[C@H]1O [STREPTOMYCIN]	25 (≈ 43 µM)		12.5 (≈ 21.5 µM)		12.5 (≈ 21.5 µM)	25 (≈ 43 µM)	50 (≈ 86 µM)			
C[C@@H]1[C@H](O)[C@@H](C)/C=C/C=C/C=C/C=C/C=C/C=C/C=C/[C@H](O[C@@H]2O[C@H](C)[C@@H](O)[C@H](N)[C@@H]2O)C[C@@H]2O[C@](O)(C[C@@H](O)C[C@@H](O)[C@H](O)CC[C@@H](O)C[C@@H](O)CC(=O)O[C@H]1C)C[C@H](O)[C@H]2C(=O)O [AMPHOTERICIN B]		25 (≈ 27.1 µM)		50 (≈ 54.1 µM)				50 (≈ 54.1 µM)	25 (≈ 27.1 µM)	25 (≈ 27.1 µM)
O=CN1C(c2ccccc2)CC(=O)C(Cc2ccccc2)C1c1ccccc1 (stereo not drawn)	12.5 (≈ 33.8 µM)	12.5 (≈ 33.8 µM)	25 (≈ 67.7 µM)	25 (≈ 67.7 µM)	25 (≈ 67.7 µM)	6.25 (≈ 16.9 µM)	25 (≈ 67.7 µM)	50 (≈ 135 µM)	25 (≈ 67.7 µM)	12.5 (≈ 33.8 µM)
O=C1CC(c2ccco2)NC(c2ccco2)C1Cc1ccccc1 (stereo not drawn)	25 (≈ 77.8 µM)	25 (≈ 77.8 µM)	12.5 (≈ 38.9 µM)	50 (≈ 156 µM)	50 (≈ 156 µM)	12.5 (≈ 38.9 µM)	12.5 (≈ 38.9 µM)	50 (≈ 156 µM)	25 (≈ 77.8 µM)	25 (≈ 77.8 µM)
O/N=C1\CC(c2ccco2)NC(c2ccco2)C1Cc1ccccc1 (stereo not drawn)	12.5 (≈ 37.2 µM)	6.25 (≈ 18.6 µM)	12.5 (≈ 37.2 µM)	25 (≈ 74.3 µM)	25 (≈ 74.3 µM)	6.25 (≈ 18.6 µM)	12.5 (≈ 37.2 µM)	6.25 (≈ 18.6 µM)	25 (≈ 74.3 µM)	12.5 (≈ 37.2 µM)
